# According to publication PMC11714206, “Massively Parallel Screening of Toll/Interleukin‐1 Receptor (TIR)‐Derived Peptides Reveals Multiple Toll‐Like Receptors (TLRs)‐Targeting Immunomodulatory Peptides” (Advanced Science, 2024):
# Values joined by “and” are separate entries in the source; they are usually repeats but may differ in a detail not shown here. Identical values can stand only once.
# Biological target: T1, MAL^TIR (Homo sapiens, UniProt P58753)
# T1 construct: MAL (residues 79–221); 6xHis; made in house; host or cells: E. coli BL21 (DE3)
# T1 sequence (P58753 79-221): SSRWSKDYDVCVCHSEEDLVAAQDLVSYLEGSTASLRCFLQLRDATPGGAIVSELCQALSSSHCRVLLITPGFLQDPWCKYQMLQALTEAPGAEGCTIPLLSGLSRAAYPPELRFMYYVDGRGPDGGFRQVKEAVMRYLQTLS
# Assay: T‐Surf phage library (P8 and P3) selection against MAL^TIR, four rounds, NGS read counts
# Type: binding
# Conditions: for P8_MAL Rank (after) / P8_MAL Rank (before): P8 library; for P3_MAL Rank (after) / P3_MAL Rank (before): P3 library; for Population: 4th round of selection against MAL TIR, share of NGS reads
# Method: T‐Surf libraries were screened against the immobilized TIR domains of two major human TLR adaptor proteins, MAL^TIR and MyD88^TIR, allowing cross‐species selection of TIR‐binding motifs with 190 946 TIR‐derived peptides in a single binding assay (Scheme 1). Enriched phage pools from the fourth round of selection were analyzed using NGS after barcoding the peptide‐coding regions of the phage pools.
# Phage display screening was performed by coating two wells of a 96‐well plate (Maxisorp, Thermo Fisher Scientific) with 100 µL of 5 µg mL^−1 TIR domains overnight; then, the coated wells were blocked with 200 µL of blocking buffer (0.2% BSA in PBS) and set aside for 1 h at 4 °C with gentle shaking. Next, 100 µL of the phage library was added to the wells and incubated for 1 h at room temperature (RT; 20 – 22 °C) with gentle shaking. The plate was washed four times with PBS containing 0.5% Tween‐20; the bound phages were eluted by adding 100 µL of 100 mM HCl to each well. The elute was neutralized with 10 µL of 1.0 M Tris‐HCl (pH 11.0). E. coli TG1 cells were grown to the log phase (A600 = ≈0.6), and 1 mL of the culture was incubated with 100 µL of the eluted phages for 30 min at 37 °C, with shaking at 200 rpm. Next, 1 µL of M13KO7 helper phages was added, followed by incubation for 45 min at 37 °C, with shaking. Subsequently, the cells were transferred to 25 mL of 2× yeast extract tryptone/carbenicillin/kanamycin medium and incubated overnight at 37 °C with shaking at 200 rpm. The amplified phages were precipitated with 20% PEG‐8000/2.5 M NaCl to be used for the next round of selection.
# The naïve T‐Surf libraries in P8 and P3 and the enriched phage pools after four rounds were barcoded for NGS as previously described.^[ [59] ^] Briefly, 5 µL of the phage pool was used as a template for 20 cycles of a 50 µL PCR reaction using […] each of forward and reverse barcoded primers and PrimeSTAR Max DNA Polymerase. The PCR products were purified using Expin Gel SV (GeneAll). The NGS samples were quantified using qPCR, following the qPCR Quantification Protocol Guide (KAPA Library Quantification kits for Illumina Sequencing Platform), and qualified using the TapeStation High Sensitivity D1000 ScreenTape (Agilent Technologies). The indexed libraries were further sequenced by Macrogen (Seoul, Republic of Korea) using the NovaSeq platform (Illumina) with 100 bp paired‐end reads. The reads were demultiplexed by barcodes and filtered for an average Phred quality score of at least 30, followed by trimming the flanking consensus sequences using Cutadapt (version 2.3). Peptide sequence populations were analyzed according to the read counts.
# [1] = selection against MAL, rank by count after grouping
# [2] = selection against MAL, rank by count before grouping
# [3] = P8_MAL: rank by count after grouping
# [4] = P8_MAL: rank by count before grouping
# [5] = selection against MAL TIR, rank by count after grouping
# [6] = selection against MAL TIR, rank by count before grouping
# [7] = selection against MAL, rank after grouping
# [8] = selection against MAL, rank before grouping
# [9] = 4R selection against MAL, rank after grouping
# [10] = 4R selection against MAL, rank before grouping
# [11] = P3_MAL: rank by count after grouping
# [12] = P3_MAL: rank by count before grouping
sequence,measurement,setting,value
KLIQGWFLYRLMQIEQ,P8_MAL Rank (after),[1],707
same,P8_MAL Rank (before),[2],2749
KLLWEKCTFFLPSLSR,Rank (after),[3],429
same,Rank (before),[4],2726
KLLWVKFKFFLPSLSR,P8_MAL Rank (after),[5],211
same,P8_MAL Rank (before),[6],2730
KLQECRDTLRKIADFF,P3_MAL Rank (after),[7],494
same,P3_MAL Rank (before),[8],3627
KLQEWRDALTAAANLSGW,P3_MAL Rank (after),[9],600
same,P3_MAL Rank (before),[10],3631
KLRAWRDALRNIANIF,Rank (after),[11],428
same,Rank (before),[12],3626
KMKYWKDALYDASNLS,P3_MAL Rank (after),[7],510
same,P3_MAL Rank (before),[8],3703
KMQKWKDALTKVASL,P3_MAL Rank (after),[9],673
same,P3_MAL Rank (before),[10],3697
KMQKWKDALYEAAKLG,P3_MAL Rank (after),[5],250
same,P3_MAL Rank (before),[6],3687
KMQKWKDALYEAAN,P3_MAL Rank (after),[1],710
same,P3_MAL Rank (before),[2],3685
KMQKWKDALYEAANE,P3_MAL Rank (after),[9],614
same,P3_MAL Rank (before),[10],3674
KMQKWKDALYEAANPT,P3_MAL Rank (after),[1],734
same,P3_MAL Rank (before),[2],3683
KMQKWKEALHQFHSWV,Rank (after),[11],108
same,Rank (before),[12],233
KMQQWQDALYEAANLS,P3_MAL Rank (after),[1],691
same,P3_MAL Rank (before),[2],3654
KNLFHELVIKNIRTFM,P3_MAL Rank (after),[1],696
same,P3_MAL Rank (before),[2],3747
KNLFNELVRKNLRTFM,Rank (after),[11],458
same,Rank (before),[12],3753
KNLFNELVSKNIRTFM,Rank (after),[3],116
same,Rank (before),[4],732
KNLFNEMVSKNIRTYM,P3_MAL Rank (after),[7],567
same,P3_MAL Rank (before),[8],3780
KNLFYDLVSKNIRTFM,P3_MAL Rank (after),[1],712
same,P3_MAL Rank (before),[2],3473
KNVRLARSVRKNGVP,P3_MAL Rank (after),[1],697
same,P3_MAL Rank (before),[2],3474
KPSVSGPEKSWHFYL,P3_MAL Rank (after),[9],660
same,P3_MAL Rank (before),[10],3467
KQWLNAPTAAANLSGW,P3_MAL Rank (after),[9],664
same,P3_MAL Rank (before),[10],3635
KRFEDRMNKVLEWKAA,P8_MAL Rank (after),[1],698
same,P8_MAL Rank (before),[2],2674
KRFWERLRYMLPHSSL,P3_MAL Rank (after),[5],242
same,P3_MAL Rank (before),[6],3466
KRISEQLRPALNVRRP,P3_MAL Rank (after),[9],665
same,P3_MAL Rank (before),[10],3633
KSILDTEARIWAGVR,P3_MAL Rank (after),[1],695
same,P3_MAL Rank (before),[2],3728
KSILDTEARIWGWLFA,P3_MAL Rank (after),[5],248
same,P3_MAL Rank (before),[6],3718
KTLAGLLYDHLFRLRL,Population,P3_MAL pool: P3 T-Surf phage library,0.0233%
same,Rank (after),[11],101
same,Rank (before),[12],102
KTLAGLRCDHLFRLRL,P3_MAL Rank (after),[9],639
same,P3_MAL Rank (before),[10],3743
KWFLAKLIYALSRNPH,P3_MAL Rank (after),[1],758
same,P3_MAL Rank (before),[2],3484
KWFWDKLIYALSRIR,P3_MAL Rank (after),[7],545
same,P3_MAL Rank (before),[8],3495
KWFWDKLIYALSRNPH,P8_MAL Rank (after),[5],231
same,P8_MAL Rank (before),[6],1067
KWFWDKLIYPLSRNPQ,P3_MAL Rank (after),[5],239
same,P3_MAL Rank (before),[6],3510
KWFWDTLTYAPNLSPH,P3_MAL Rank (after),[9],672
same,P3_MAL Rank (before),[10],3487
KWFWEKLRYALTYRPAT,P3_MAL Rank (after),[9],602
same,P3_MAL Rank (before),[10],3516
LCFCESLKQLLRSDGR,Rank (after),[3],110
same,Rank (before),[4],2161
LCFRESLKQLLRSNGR,P8_MAL Rank (after),[7],535
same,P8_MAL Rank (before),[8],2162
LELGDPYFWSKLRYAM,Rank (after),[11],453
same,Rank (before),[12],2129
LFCWESLKQLLRSDCR,Rank (after),[3],169
same,Rank (before),[4],2151
LFFCESLKQLLRSDGH,P8_MAL Rank (after),[5],244
same,P8_MAL Rank (before),[6],2057
LFFCESLKQLLRSDGR,Population,P8_MAL pool: P8 T-Surf phage library,0.00371% and 0.0034%
LFFGASLKQLLRSDGR,P8_MAL Rank (after),[9],580
same,P8_MAL Rank (before),[10],2134
LFFGKALNSCCVAIA,P8_MAL Rank (after),[9],649
same,P8_MAL Rank (before),[10],2136
LFFWARLKNVLGSAGS,P8_MAL Rank (after),[7],557
same,P8_MAL Rank (before),[8],2064
LFFWASLKNLLRSAGS,Rank (after),[3],389
same,Rank (before),[4],2066
